{
  "source": "ChEMBL document CHEMBL5465560",
  "about": "“Selectivity Literature for EUbOPEN Chemogenomic Library” (2024)",
  "key": {"[1]": {"target": "Serine/threonine-protein kinase pim-3 (Homo sapiens) (UniProt Q86V86)", "test": "Selectivity interaction (Kinase panel (DSF assay)) EUB0001558a PIM3"}, "[2]": {"target": "Death-associated protein kinase 3 (Homo sapiens) (UniProt O43293)", "sequence (O43293 whole entry, looked up)": "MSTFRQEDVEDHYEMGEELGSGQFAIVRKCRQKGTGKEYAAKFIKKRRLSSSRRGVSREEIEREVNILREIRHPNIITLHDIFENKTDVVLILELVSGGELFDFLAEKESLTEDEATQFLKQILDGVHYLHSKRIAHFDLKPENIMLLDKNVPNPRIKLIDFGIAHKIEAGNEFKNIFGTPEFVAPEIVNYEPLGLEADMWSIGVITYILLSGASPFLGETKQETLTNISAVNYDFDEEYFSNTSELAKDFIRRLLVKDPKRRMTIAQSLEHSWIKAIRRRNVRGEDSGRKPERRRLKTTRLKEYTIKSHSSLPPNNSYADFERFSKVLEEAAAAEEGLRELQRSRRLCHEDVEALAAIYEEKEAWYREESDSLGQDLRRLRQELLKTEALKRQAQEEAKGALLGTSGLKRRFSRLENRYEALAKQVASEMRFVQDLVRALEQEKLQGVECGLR", "test": "Selectivity interaction (KinomeScan (DiscoverX)) EUB0000229b DAPK3", "settings": "at 10 µM"}, "[3]": {"target": "T1, MAP/microtubule affinity-regulating kinase 4 (Homo sapiens) (UniProt Q96L34)", "T1 sequence (whole entry)": "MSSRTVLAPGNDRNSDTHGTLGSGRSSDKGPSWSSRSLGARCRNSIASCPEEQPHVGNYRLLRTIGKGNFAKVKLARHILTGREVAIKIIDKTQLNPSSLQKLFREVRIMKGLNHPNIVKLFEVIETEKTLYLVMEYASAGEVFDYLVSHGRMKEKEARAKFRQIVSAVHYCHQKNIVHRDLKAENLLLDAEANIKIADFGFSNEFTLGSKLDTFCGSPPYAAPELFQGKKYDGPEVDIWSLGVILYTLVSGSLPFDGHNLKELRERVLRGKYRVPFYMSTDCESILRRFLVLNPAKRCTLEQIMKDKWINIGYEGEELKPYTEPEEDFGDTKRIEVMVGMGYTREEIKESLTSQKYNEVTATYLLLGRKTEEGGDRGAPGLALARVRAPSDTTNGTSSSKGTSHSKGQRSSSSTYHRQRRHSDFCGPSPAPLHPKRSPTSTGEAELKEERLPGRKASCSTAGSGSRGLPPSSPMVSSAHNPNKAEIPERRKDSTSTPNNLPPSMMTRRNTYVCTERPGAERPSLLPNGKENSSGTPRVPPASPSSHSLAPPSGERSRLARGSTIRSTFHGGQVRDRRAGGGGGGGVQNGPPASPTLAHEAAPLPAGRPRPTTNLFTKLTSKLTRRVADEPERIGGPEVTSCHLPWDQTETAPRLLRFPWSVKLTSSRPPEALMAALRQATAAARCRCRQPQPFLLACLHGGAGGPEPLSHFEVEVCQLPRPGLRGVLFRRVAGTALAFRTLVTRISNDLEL", "test": "Selectivity interaction (KinomeScan (DiscoverX)) EUB0000092b MARK4", "settings": "at 10 µM"}, "[4]": {"target": "Serine/threonine-protein kinase N1 (Homo sapiens, UniProt Q16512)", "sequence (Q16512 2-942 limits assumed)": "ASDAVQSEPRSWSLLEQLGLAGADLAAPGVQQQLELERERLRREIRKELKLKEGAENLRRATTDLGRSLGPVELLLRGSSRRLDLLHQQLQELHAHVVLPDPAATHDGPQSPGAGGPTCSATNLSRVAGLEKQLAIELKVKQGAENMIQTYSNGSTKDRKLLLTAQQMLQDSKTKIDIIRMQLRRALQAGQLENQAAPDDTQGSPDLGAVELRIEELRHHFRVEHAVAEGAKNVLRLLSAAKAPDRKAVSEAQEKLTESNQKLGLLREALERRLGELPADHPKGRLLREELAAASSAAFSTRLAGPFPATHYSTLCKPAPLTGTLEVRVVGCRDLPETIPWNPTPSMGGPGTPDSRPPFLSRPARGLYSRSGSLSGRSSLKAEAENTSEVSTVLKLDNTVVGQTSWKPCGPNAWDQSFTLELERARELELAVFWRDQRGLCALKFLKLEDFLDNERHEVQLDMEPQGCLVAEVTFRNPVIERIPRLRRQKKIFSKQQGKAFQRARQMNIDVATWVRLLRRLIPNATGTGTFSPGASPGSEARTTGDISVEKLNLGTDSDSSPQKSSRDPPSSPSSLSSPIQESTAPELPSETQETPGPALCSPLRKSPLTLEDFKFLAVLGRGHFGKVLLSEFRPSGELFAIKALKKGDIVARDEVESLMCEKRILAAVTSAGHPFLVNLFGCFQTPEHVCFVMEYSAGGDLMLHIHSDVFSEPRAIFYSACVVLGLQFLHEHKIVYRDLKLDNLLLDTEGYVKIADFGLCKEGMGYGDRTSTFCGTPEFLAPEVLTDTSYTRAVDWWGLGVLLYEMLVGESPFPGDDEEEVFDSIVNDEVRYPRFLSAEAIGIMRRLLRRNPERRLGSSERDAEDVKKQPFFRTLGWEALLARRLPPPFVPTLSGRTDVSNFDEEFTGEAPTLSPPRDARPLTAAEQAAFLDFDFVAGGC", "test": "Selectivity interaction (KinomeScan (DiscoverX)) EUB0000655a PKN1", "settings": "at 10 µM"}, "[5]": {"target": "Mitogen-activated protein kinase 1 (Homo sapiens, UniProt P28482)", "sequence (P28482 whole entry)": "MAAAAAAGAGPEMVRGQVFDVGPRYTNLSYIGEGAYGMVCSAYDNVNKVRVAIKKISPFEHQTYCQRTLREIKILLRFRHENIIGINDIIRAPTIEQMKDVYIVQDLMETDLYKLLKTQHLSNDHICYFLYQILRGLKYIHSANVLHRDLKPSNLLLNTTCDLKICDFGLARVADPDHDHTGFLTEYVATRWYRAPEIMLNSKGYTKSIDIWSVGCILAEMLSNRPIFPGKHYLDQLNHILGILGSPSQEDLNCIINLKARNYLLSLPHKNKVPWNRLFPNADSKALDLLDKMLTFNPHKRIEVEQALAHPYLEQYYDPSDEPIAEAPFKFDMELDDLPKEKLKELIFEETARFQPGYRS", "test": "Selectivity interaction (KinomeScan (DiscoverX)) EUB0000666a MAPK1", "settings": "at 10 µM"}, "[6]": {"target": "T2, Ephrin type-A receptor 3 (Homo sapiens) (UniProt P29320)", "T2 sequence (whole entry)": "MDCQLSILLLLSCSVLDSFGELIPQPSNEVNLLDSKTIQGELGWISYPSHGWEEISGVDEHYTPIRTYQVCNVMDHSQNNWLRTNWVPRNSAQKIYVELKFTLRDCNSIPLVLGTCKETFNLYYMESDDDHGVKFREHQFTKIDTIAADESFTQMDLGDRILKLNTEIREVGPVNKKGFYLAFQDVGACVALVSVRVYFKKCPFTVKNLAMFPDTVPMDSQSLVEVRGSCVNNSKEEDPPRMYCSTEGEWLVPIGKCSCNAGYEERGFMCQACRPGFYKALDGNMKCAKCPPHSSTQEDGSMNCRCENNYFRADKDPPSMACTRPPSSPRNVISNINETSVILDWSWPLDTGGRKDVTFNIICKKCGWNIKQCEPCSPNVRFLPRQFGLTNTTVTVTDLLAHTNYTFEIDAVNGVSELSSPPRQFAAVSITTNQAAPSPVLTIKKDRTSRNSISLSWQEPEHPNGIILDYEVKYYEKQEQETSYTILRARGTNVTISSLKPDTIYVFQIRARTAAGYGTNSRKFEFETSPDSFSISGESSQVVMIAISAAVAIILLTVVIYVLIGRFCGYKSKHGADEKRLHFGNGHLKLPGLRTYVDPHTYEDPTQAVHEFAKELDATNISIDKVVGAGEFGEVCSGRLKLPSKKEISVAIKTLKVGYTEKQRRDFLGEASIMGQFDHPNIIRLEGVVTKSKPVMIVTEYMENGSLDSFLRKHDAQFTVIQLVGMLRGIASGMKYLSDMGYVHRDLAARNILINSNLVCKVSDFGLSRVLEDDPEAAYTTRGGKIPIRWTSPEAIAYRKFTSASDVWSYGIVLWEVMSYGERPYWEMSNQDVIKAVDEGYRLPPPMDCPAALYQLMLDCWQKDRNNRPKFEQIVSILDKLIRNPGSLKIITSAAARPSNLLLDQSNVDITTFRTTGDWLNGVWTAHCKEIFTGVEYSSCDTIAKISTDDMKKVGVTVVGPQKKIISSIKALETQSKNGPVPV", "test": "Selectivity interaction (KinomeScan (DiscoverX)) EUB0000666a EPHA3", "settings": "at 10 µM"}, "[7]": {"target": "Dual specificity tyrosine-phosphorylation-regulated kinase 1A (Homo sapiens, UniProt Q13627)", "test": "Selectivity interaction (KinomeScan (DiscoverX)) EUB0000666a DYRK1A", "settings": "at 10 µM"}, "[8]": {"target": "Ribosomal protein S6 kinase beta-1 (Homo sapiens, UniProt P23443)", "sequence (P23443 whole entry)": "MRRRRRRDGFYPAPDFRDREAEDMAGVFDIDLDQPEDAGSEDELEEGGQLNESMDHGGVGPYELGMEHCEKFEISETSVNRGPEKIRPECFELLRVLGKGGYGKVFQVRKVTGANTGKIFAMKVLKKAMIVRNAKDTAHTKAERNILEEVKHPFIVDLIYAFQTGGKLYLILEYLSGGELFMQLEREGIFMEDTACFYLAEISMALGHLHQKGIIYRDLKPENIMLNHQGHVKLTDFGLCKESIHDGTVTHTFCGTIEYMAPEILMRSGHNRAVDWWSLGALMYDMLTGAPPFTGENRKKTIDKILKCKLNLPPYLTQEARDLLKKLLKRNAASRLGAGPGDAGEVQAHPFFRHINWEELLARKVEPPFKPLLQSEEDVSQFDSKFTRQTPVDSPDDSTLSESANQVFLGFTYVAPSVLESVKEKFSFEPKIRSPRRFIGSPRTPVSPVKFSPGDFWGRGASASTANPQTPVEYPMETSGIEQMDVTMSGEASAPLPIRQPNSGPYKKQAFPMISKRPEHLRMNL", "test": "Selectivity interaction (Enyzmatic assay) EUB0000601a RPS6KB1"}, "[9]": {"target": "Serine/threonine-protein kinase Nek4 (Homo sapiens) (UniProt P51957)", "sequence (P51957 whole entry, looked up)": "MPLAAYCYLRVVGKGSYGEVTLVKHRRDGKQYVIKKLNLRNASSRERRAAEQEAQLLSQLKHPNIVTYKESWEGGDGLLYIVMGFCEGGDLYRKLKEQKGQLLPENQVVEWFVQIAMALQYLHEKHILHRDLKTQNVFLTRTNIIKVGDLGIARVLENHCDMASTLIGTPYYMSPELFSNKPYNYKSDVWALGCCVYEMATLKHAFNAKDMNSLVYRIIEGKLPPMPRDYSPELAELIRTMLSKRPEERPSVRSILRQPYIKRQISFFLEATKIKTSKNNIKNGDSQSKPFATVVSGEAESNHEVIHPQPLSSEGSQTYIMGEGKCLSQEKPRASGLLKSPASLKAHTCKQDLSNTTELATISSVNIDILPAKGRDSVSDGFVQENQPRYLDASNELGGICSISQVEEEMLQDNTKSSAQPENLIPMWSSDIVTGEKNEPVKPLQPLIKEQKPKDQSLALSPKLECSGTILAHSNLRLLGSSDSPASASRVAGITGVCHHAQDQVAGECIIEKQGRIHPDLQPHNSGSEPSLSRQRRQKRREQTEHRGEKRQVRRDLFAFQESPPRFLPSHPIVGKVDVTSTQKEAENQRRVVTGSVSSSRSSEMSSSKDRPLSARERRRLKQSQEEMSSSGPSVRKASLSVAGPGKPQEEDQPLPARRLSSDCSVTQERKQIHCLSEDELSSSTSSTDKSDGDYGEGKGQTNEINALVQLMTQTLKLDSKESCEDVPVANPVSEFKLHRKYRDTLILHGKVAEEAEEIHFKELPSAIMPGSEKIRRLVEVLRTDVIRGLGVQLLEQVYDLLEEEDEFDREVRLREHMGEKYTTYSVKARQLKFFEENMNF", "test": "Selectivity interaction (KinomeScan (DiscoverX)) EUB0000595a NEK4", "settings": "at 10 µM"}, "[10]": {"target": "Casein kinase I isoform alpha (Homo sapiens, UniProt P48729)", "sequence (P48729 2-337 limits assumed)": "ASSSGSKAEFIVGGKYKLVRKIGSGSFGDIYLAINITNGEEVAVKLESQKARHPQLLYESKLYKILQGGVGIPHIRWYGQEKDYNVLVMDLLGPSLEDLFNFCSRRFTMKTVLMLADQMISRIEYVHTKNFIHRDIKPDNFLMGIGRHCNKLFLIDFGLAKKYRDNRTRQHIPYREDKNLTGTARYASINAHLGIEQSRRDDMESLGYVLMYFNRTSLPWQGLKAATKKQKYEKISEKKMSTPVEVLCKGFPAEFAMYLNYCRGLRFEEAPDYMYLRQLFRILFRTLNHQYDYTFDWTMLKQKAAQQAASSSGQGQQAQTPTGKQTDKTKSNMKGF", "test": "Selectivity interaction (Kinase screening (Upstate/Millipore)) EUB0000604a CSNK1A1"}, "[11]": {"target": "T3, Interleukin-1 receptor-associated kinase 3 (Homo sapiens) (UniProt Q9Y616)", "T3 sequence (whole entry)": "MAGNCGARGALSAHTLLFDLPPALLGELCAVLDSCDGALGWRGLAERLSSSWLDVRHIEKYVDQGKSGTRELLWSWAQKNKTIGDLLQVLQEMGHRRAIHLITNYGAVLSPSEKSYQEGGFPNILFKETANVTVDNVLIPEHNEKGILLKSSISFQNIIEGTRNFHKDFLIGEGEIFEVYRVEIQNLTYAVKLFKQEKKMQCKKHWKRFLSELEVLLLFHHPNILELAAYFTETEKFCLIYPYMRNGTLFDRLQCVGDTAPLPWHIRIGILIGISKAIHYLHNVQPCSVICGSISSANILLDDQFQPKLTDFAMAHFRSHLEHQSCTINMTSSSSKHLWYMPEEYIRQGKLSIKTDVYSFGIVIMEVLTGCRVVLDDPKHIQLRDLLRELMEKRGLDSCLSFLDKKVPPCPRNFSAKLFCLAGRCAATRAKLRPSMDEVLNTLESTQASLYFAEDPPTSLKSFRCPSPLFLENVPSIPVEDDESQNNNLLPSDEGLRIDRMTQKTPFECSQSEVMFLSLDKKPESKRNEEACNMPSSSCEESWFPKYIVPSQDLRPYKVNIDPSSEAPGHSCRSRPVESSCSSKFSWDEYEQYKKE", "test": "Selectivity interaction (ActivX KiNativ screen (ex vivo kinase selectivity in human PBMCs)) EUB0001619a IRAK3", "assay_type": "cell-based", "settings": "PBMC, at 1 µM"}},
  "note": "pIC50: −log10 of the molar value.",
  "data": [
    {"smiles": "CC(C)(O)[C@H](F)CN1Cc2cc(NC(=O)c3cnn4cccnc34)c(N3CCOCC3)cc2C1=O", "values": [
      {"measurement": "dTM", "setting": "[1]", "value": 1, "unit": "K"}
    ]},
    {"smiles": "COc1cc(N(C)c2ccnc3ccc(C(F)(F)F)cc23)cc(OC)c1OC", "values": [
      {"measurement": "% binding", "setting": "[2]", "value": 91, "unit": "%"}
    ]},
    {"smiles": "CCC(=O)N1CCN(c2ccc(-n3c(=O)ccc4cnc5ccc(-c6cnc7ccccc7c6)cc5c43)cc2C(F)(F)F)CC1", "values": [
      {"measurement": "% of control", "setting": "[3]", "value": 100, "unit": "%"}
    ]},
    {"smiles": "CN(C)CCOc1ccc(-c2nc(-c3ccncc3)c(-c3ccc4c(c3)CC/C4=N\\O)[nH]2)cc1", "values": [
      {"measurement": "% of control", "setting": "[4]", "value": 92, "unit": "%"}
    ]},
    {"smiles": "O=C(NOC[C@H](O)CO)c1ccc(F)c(F)c1Nc1ccc(I)cc1F", "values": [
      {"measurement": "% of control", "setting": "[5]", "value": 100, "unit": "%"},
      {"measurement": "% of control", "setting": "[6]", "value": 100, "unit": "%"},
      {"measurement": "% of control", "setting": "[7]", "value": 100, "unit": "%"}
    ]},
    {"smiles": "CCc1cc(Nc2nccc(-c3c(-c4ccc(OC)c(C(=O)Nc5c(F)cccc5F)c4)nc4ccccn34)n2)c(OC)cc1N1CCC(N2CCN(S(C)(=O)=O)CC2)CC1", "values": [
      {"measurement": "pIC50", "setting": "[8]", "value": "< 5.00"}
    ]},
    {"smiles": "COCC(=O)NC/C=C/c1ccc2ncnc(Nc3ccc(Oc4ccc(C)nc4)c(C)c3)c2c1", "note": "[CP-724714]", "values": [
      {"measurement": "% of control", "setting": "[9]", "value": 100, "unit": "%"}
    ]},
    {"smiles": "Cc1cnc(Nc2ccc(F)cc2Cl)nc1-c1c[nH]c(C(=O)N[C@H](CO)c2cccc(Cl)c2)c1", "values": [
      {"measurement": "% of inhibition", "setting": "[10]", "value": 25, "unit": "%"}
    ]},
    {"smiles": "N#Cc1cccc(-c2c[nH]c3ncnc(N4CCOCC4)c23)c1", "values": [
      {"measurement": "% of inhibition", "setting": "[11]", "value": 34, "unit": "%"}
    ]}
  ]
}
